Assay results from paper PMC9394284, “Discovery of Novel Dual Adenosine A2A and A1 Receptor Antagonists with 1H-Pyrazolo[3,4-d]pyrimidin-6-amine Core Scaffold as Anti-Parkinson’s Disease Agents” (Pharmaceuticals, 2022).
Entries after “also recorded” stand apart in the source; their conditions may differ. Read-outs that look alike come from different tables or passages of the source.

Legend:
[1] = pharmacokinetics and bioavailability in mouse plasma; format: in vivo, Crl:CD-1 mice
Protocol: Male Crl:CD-1 mice of 9~10 weeks of age were purchased from Charles River Laboratories, USA and maintained at standard food and water ad libitum in temperature-controlled room with 12 h on-off light cycle before the experiment. All procedures described were reviewed and approved by the Institutional Animal Care and Use Committee (IACUC) at Frontage Laboratories Inc. For PO dosing, mice were given 11o dissolved in DMSO: PEG400 (1:3, v:v) via gavage. For IV dosing, 11o solubilized in DMSO: PEG400: saline (1:3:6, v:v) were injected into tail veins at dose volume of 1 mL/kg. For IN dosing, 11o solubilized in DMSO and 25 μL of the appropriate dosing solution was placed near the nares to allow animal to inhale the dose. Three mice were sampled from each group for each blood and brain collection time point. Time points are 0.5, 1, 2, 4, 8, 24 h for PO and IN dosing and 0.083, 1, 2, 4, 8 and 24 h for IV dosing. Mice were euthanized by terminal retro-orbital blood collection under isoflurane anesthesia, followed by opening of the thoracic cavity per facility SOPs. A target volume of 1 mL was collected into tubes containing K3EDTA anti-coagulant, inverted several times and held on wet ice until centrifuged under refrigeration (set at 5 °C for 10 min at 2000× g). Resulting plasma were stored in a freezer set to maintain −70 °C until analyzed for 11o concentration. Brain was removed from each animal and weighed following termination, snap frozen and stored until later use. Plasma and brain PK analysis was conducted using WinNolin Version 6.2.1 (Pharsight, Mountain View, CA, USA), operating as a validated software system. Noncompartmental analysis was conducted using the extravascular administration model for oral dosing and the IV bolus model for IV dosing. The peak plasma and brain concentration, time to achieve peak plasma concentration, half-life, and area under the plasma concentration-time curve (Cmax, Tmax, T1/2 and AUC) were calculated from mean plasma concentrations for each sampling time/dose group for 11o. Nominal blood collection times were used for calculation of PK parameters. Dose proportionality was assessed, and bioavailability was calculated for PO dosing.

[2] = metabolic stability in cryopreserved dog hepatocytes; details: dog hepatocytes; 1 μM 11o; little/no compound depletion
Protocol: Metabolic stability of 11o was determined in cryopreserved hepatocytes from mice, rats, dogs, monkeys and human according to the SOPs of Frontage Laboratories Inc. Briefly, cryopreserved hepatocytes for pre-clinical animals and for human (BioIVT, Westbury, NY, USA) were thawed in a 37 °C water bath with gentle shaking until ice had almost melted. The suspensions were immediately transferred to a centrifuge tube (50 mL) containing pre-warmed thawing media at 37 °C with gentle handshaking to prevent the cells from settling. Cell suspensions were centrifuged at 50× g and 4 °C for 5 min. The supernatant was discarded and the pellets were resuspended in prewarmed incubation media (5 mL) at 37 °C. The percentage of viable cells in the suspension was determined by Trypan blue staining method to ensure viability of ≥70 %. […] The samples were centrifuged and aliquots of the supernatant were analyzed for parent compounds by LC/MS/MS using suitable multiple reaction monitoring (MRM) transitions. […] The disappearance of 11o and midazolam was monitored by LC/MS/MS (MRM) analysis of the hepatocyte extracts at each time point. The peak area ratio of the analyte to internal standard was obtained for each sample and the rate of disappearance of 11o was assessed by comparing the peak area ratios at various time points to the peak area ratio obtained at t = 0. The t1/2 is obtained (using the linear portion of semi-log plot of the area ratio vs. time) and the CLint values determined using well-stirred model.

[3] = test system: TA98 and TA100; test: AMES bacterial reverse-mutation test; format: cell-based; details: up to 1867 μg/plate; TA98 and TA100, with and without S9
Protocol: The mutagenic potential of 11o was also tested by assessing its ability to reverse mutations in a bacterial mutagenesis study.
AMES bacterial reverse-mutation test was performed at Frontage laboratories inc. (Frontage laboratories, Concord, OH, USA) according to testing facility’s standard operating procedures (SOPs) following OECD guideline 471, “Bacterial Reverse Mutation Test”, and ICH S2(R1), “Guidance on Genotoxicity Testing and Data Interpretation for Pharmaceuticals Intended for Human Use”[19]. Briefly, test system was exposed to test article via plate-incorporation methodology originally described by Ames et al. and updated by Maron and Ames. […] For mutagenicity assay, TA98 and TA100 (tester strains source: Molecular Toxicology Inc. (Boone, NC, USA). TA98 lot number 5464D, part number 71–098L; TA100 lot number 5439D, part number 71–100L) was exposed to vehicle alone and at least 8 concentrations of 11o, with duplicate plates/condition, in both the presence and absence of S9 using the plate incorporation method. […] Following incubation, plates were examined for the condition of the bacterial background lawn and precipitate and recorded. Colonies were enumerated either by visually or by an automatic colony counter (Scan 1200 Automated colony counter and scan software).

[4] = male, Crl:CD-1, inhaled or intranasal, mouse plasma, 10 mg/kg IN
[5] = male, Crl:CD-1, mouse plasma, 1 mg/kg IV
[6] = male, Crl:CD-1, mouse plasma, 1 mg/kg PO
[7] = male, Crl:CD-1, mouse plasma, 3 mg/kg PO
[8] = male, Crl:CD-1, mouse plasma, 10 mg/kg PO

For `Cc1cc(Cn2ncc3c(-c4cccc(C#N)c4F)nc(N)nc32)ccc1N` [11o, 3-(6-Amino-1-(4-amino-3-methylbenzyl)-1H-pyrazolo[3,4-d]pyrimidin-4-yl)-2-fluorobenzonitrile], the Tmax ([1]; male, Crl:CD-1, inhaled or intranasal, mouse plasma, 1 mg/kg IN) was 0.5 h, the Tmax ([1]; male, Crl:CD-1, inhaled or intranasal, mouse plasma, 3 mg/kg IN) was 0.5 h and the Tmax [1, 4] was 0.5 h. The half-life [1, 4] was 7.4 h, the AUC(0-t) ([1]; male, Crl:CD-1, mouse, plasma, inhaled or intranasal, 1 mg/kg, mouse plasma, 1 mg/kg IN) was 74.9 ng·h/mL and the Cmax ([1]; male, Crl:CD-1, mouse, plasma, inhaled or intranasal, 1 mg/kg, mouse plasma, 1 mg/kg IN, read-out: Cmax) was 23.3 ng/mL. It also gave an AUC(0-t) ([1]; male, Crl:CD-1, mouse, plasma, inhaled or intranasal, 3 mg/kg, mouse plasma, 3 mg/kg IN) of 183 ng·h/mL, a Cmax ([1]; male, Crl:CD-1, mouse, plasma, inhaled or intranasal, 3 mg/kg, mouse plasma, 3 mg/kg IN, read-out: Cmax) of 53.9 ng/mL and an AUC(0-t) ([1]; male, Crl:CD-1, mouse, plasma, inhaled or intranasal, 10 mg/kg, mouse plasma, 10 mg/kg IN) of 444 ng·h/mL. It also gave a Cmax ([1]; male, Crl:CD-1, mouse, plasma, inhaled or intranasal, 10 mg/kg, mouse plasma, 10 mg/kg IN, read-out: Cmax) of 88.5 ng/mL, an AUC(0-t) ([1]; male, Crl:CD-1, mouse, plasma, iv, 1 mg/kg, mouse plasma, 1 mg/kg IV) of 332 ng·h/mL and a Cmax ([1]; male, Crl:CD-1, mouse, plasma, iv, 1 mg/kg, mouse plasma, 1 mg/kg IV, read-out: Cmax) of 459 ng/mL. The AUC(0-t) ([1]; male, Crl:CD-1, mouse, plasma, po, 1 mg/kg, mouse plasma, 1 mg/kg PO) was 176 ng·h/mL, the Cmax ([1]; male, Crl:CD-1, mouse, plasma, po, 1 mg/kg, mouse plasma, 1 mg/kg PO, read-out: Cmax) was 36.8 ng/mL and the AUC(0-t) ([1]; male, Crl:CD-1, mouse, plasma, po, 3 mg/kg, mouse plasma, 3 mg/kg PO) was 577 ng·h/mL. For the same compound, the Cmax ([1]; male, Crl:CD-1, mouse, plasma, po, 3 mg/kg, mouse plasma, 3 mg/kg PO, read-out: Cmax) was 81.4 ng/mL, the AUC(0-t) ([1]; male, Crl:CD-1, mouse, plasma, po, 10 mg/kg, mouse plasma, 10 mg/kg PO) was 2250 ng·h/mL and the Cmax ([1]; male, Crl:CD-1, mouse, plasma, po, 10 mg/kg, mouse plasma, 10 mg/kg PO, read-out: Cmax) was 367 ng/mL. It also gave a bioavailability ([1]; male, Crl:CD-1, plasma, other: intranasal (IN), placed near the nares, mouse, IN, 1, 3 and 10 mg/kg, depending on the dose, read-out: Bioavailability after IN administration) of 13.4 to 22.6%, a Tmax [1, 5] of 0.083 h and a half-life [1, 5] of 3.95 h. It also gave a Tmax [1, 6] of 2 h, a half-life [1, 6] of 4.38 h and a Tmax [1, 7] of 2 h. It also gave a half-life [1, 7] of 3.66 h, a Tmax [1, 8] of 2 h and a half-life [1, 8] of 5.69 h. For the same compound, the BA ([1]; mouse plasma, 1 mg/kg IN, relative to AUClast of 1 mg/kg IV) was 22.6%, the BA ([1]; mouse plasma, 1 mg/kg IV (reference for the calculation)) was 100% and the BA ([1]; mouse plasma, 1 mg/kg PO, relative to AUClast of 1 mg/kg IV, 1 mg/kg) was 53%. For the same compound, the BA ([1]; mouse plasma, 3 mg/kg IN, relative to AUClast of 1 mg/kg IV) was 18.4%, the Cmax ([1]; mouse plasma, 3 mg/kg PO, 3 mg/kg) was 81.3 ng/mL and the BA ([1]; mouse plasma, 3 mg/kg PO, relative to AUClast of 1 mg/kg IV) was 57.9%. For the same compound, the BA ([1]; mouse plasma, 10 mg/kg IN, relative to AUClast of 1 mg/kg IV) was 13.4%, the AUClast ([1]; mouse plasma, 10 mg/kg PO, 10 mg/kg) was 2249 ng·h/mL and the BA ([1]; mouse plasma, 10 mg/kg PO, relative to AUClast of 1 mg/kg IV) was 67.7%. The “stability in dog hepatocytes (in words)” value [2] was “stable in dog hepatocytes” and the AMES mutagenicity [3] was “did not cause any positive mutagenic response; also recorded: no mutagenicity up to 1867 μg/plate”.
